# Measured values from ChEMBL document CHEMBL4834431, “Design of Dimeric Bile Acid Derivatives as Potent and Selective Human NTCP Inhibitors” (J Med Chem, 2021).
# Calls of active or inactive are those of the source. No cut-off for these calls is given here.
# Columns and labels:
# Hepatitis B virus [1] = experiment: Antiviral activity against HBV infected in human HepG2-NTCP cells assessed as reduction in HBeAg secretion incubated for 24 hrs followed replacement with fresh medium and measured at day 5 post infection by ELISA; type: functional, organism-based
# Hepatitis delta virus = experiment: Antiviral activity against HDV infected in human HepG2-NTCP cells assessed as reduction in intranuclear accumulation of HDV delta antigen at 5 uM incubated for 24 hrs followed by replacement with fresh medium and measured at day 5 post infection by DAPI staining based confocal microscopic analysis (reference value: 12.1 %); type: functional; parameters: scale not given: the % may be the effect or the level left
# Hepatitis B virus [2] = experiment: Antiviral activity against HBV infected in human HepG2-NTCP cells assessed as reduction in HBeAg secretion at 1 uM preincubated with compound followed by viral infection by ELISA; type: functional, organism-based
# Hepatitis B virus [3] = experiment: Antiviral activity against HBV infected in human HepG2-NTCP cells assessed as reduction in HBeAg secretion at 1 uM compound added along with viral infection by ELISA; type: functional, organism-based
# Hepatitis B virus [4] = experiment: Antiviral activity against HBV infected in human HepG2-NTCP cells assessed as reduction in HBeAg secretion at 1 uM pre-infected with virus followed by compound addition by ELISA; type: functional, organism-based
# [5] = target: T1, Hepatic sodium/bile acid cotransporter (Homo sapiens, UniProt Q14973); experiment: Inhibition of FITC-labeled HBV Pre-S1 polypeptide binding to human NTCP expressed in HepG2 cells after 2 to 3 hrs by confocal microscopic analysis; type: cell-based; conditions: time 2-3 hrs
# T1 sequence (Q14973 whole entry): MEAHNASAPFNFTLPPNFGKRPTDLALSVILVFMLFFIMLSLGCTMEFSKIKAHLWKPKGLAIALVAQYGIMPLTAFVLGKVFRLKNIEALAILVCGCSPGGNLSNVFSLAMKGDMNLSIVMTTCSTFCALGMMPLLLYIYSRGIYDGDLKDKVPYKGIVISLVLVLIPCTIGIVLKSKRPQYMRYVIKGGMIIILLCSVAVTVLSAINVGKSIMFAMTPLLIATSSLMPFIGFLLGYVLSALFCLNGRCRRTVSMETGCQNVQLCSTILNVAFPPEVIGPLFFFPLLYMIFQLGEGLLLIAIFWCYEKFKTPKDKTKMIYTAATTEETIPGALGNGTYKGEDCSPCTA
# HepG2 [6] = experiment: Cytotoxicity against human HepG2 cells expressing NTCP assessed as reduction in cell viability at 10 uM after 48 hrs by alamar blue assay; type: cell-based; conditions: hepg2, 48 h
# HepG2 [7] = experiment: Effect on NTCP surface expression in human HepG2-NTCP cells assessed as reduction in NTCP surface expression level after 2 hrs by immunostaining based assay; type: functional, cell-based
# [8] = target: T1, Hepatic sodium/bile acid cotransporter; experiment: Inhibition of human NTCP-mediated [3H]-TCA uptake expressed in human HepG2 cells at 2 uM; type: cell-based; conditions: hepg2, 2 µM
# [9] = target: T2, Ileal sodium/bile acid cotransporter (Homo sapiens, UniProt Q12908); experiment: Inhibition of human ASBT-mediated [3H]-TCA uptake expressed in human HepG2 cells at 2 uM; type: cell-based; conditions: hepg2, 2 µM
# T2 sequence (Q12908 whole entry): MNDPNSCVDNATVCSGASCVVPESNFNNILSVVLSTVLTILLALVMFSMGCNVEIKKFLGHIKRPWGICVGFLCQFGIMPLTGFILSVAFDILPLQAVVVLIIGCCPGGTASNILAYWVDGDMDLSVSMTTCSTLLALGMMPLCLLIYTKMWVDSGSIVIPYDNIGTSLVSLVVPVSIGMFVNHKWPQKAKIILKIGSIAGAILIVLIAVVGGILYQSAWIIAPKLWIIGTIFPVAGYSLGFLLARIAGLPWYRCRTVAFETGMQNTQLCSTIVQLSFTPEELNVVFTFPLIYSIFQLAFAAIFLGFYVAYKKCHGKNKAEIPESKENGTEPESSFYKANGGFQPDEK
# [10] = target: T1, Hepatic sodium/bile acid cotransporter; experiment: Inhibition of human NTCP-mediated [3H]-Estrone sulfate uptake expressed in human HepG2 cells at 2 uM; type: cell-based; conditions: hepg2, 2 µM
# [11] = target: T3, Solute carrier organic anion transporter family member 1B1 (Homo sapiens, UniProt Q9Y6L6); experiment: Inhibition of human OATP1B1-mediated [3H]-Estrone sulfate uptake expressed in human HepG2 cells at 2 uM; type: cell-based; conditions: hepg2, 2 µM
# T3 sequence (Q9Y6L6 whole entry): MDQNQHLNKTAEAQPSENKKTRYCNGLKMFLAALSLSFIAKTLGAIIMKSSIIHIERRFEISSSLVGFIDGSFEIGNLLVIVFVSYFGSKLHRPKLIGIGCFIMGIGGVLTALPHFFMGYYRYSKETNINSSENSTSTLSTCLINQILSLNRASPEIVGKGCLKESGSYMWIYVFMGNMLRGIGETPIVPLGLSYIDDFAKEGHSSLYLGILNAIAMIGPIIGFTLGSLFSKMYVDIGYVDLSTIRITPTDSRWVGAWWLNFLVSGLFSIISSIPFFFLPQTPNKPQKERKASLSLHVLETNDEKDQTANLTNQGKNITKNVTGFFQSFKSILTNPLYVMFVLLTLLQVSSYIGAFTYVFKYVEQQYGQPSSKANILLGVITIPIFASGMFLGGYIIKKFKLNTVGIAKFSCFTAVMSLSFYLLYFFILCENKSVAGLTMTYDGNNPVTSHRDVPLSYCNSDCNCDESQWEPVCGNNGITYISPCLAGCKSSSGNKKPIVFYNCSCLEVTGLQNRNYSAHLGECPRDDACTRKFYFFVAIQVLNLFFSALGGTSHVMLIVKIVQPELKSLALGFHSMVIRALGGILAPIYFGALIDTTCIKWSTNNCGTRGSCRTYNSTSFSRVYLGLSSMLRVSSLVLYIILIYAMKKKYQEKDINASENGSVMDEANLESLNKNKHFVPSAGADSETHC
# Hepatitis B virus [12] = experiment: Antiviral activity against HBV infected in human HepG2-NTCP cells assessed as reduction in HBeAg secretion preincubated for 2 hrs followed by viral infection by ELISA; type: functional, organism-based
# [13] = target: T1, Hepatic sodium/bile acid cotransporter; experiment: Inhibition of human NTCP-mediated [3H]-TCA uptake expressed in human HepG2 cells; type: cell-based; conditions: for inhibition (INH): human, hepg2
# HepG2 [14] = experiment: Inhibition of monkey NTCP-mediated [3H]-TCA uptake expressed in human HepG2 cells; type: cell-based; conditions: Macaca mulatta
# [15] = target: T4, Hepatic sodium/bile acid cotransporter (Mus musculus, UniProt O08705); experiment: Inhibition of mouse NTCP-mediated [3H]-TCA uptake expressed in human HepG2 cells; type: cell-based
# T4 sequence (O08705 whole entry): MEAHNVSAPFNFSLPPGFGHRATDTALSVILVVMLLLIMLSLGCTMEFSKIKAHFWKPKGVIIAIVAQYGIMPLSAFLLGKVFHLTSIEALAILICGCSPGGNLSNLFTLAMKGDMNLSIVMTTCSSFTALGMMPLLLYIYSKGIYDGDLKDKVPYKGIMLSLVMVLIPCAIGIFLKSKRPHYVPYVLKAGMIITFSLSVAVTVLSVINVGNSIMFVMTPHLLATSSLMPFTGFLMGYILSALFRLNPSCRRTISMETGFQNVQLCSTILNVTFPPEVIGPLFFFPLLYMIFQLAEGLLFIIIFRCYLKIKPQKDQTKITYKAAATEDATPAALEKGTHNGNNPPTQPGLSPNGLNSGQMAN
# HepG2 [16] = experiment: Inhibition of tree shrew NTCP-mediated [3H]-TCA uptake expressed in human HepG2 cells; type: cell-based; conditions: Scandentia
SMILES,IC50 (Hepatitis B virus [1]) [nM],Activity (Hepatitis delta virus) [%],Activity (Hepatitis B virus [2]),Activity (Hepatitis B virus [3]),Activity (Hepatitis B virus [4]),inhibition (INH) [5],Activity (HepG2 [6]),Activity (HepG2 [7]),inhibition (INH) [8],inhibition (INH) [9],inhibition (INH) [10],inhibition (INH) [11],Activity (Hepatitis B virus [12]),inhibition (INH) [13],inhibition (HepG2 [14]),inhibition (INH) [15],inhibition (HepG2 [16]),IC50 [13] [nM]
C[C@H](CCC(=O)O[C@@H]1CC[C@@]2(C)[C@@H](C1)C[C@H](O)[C@@H]1[C@@H]2CC[C@]2(C)[C@@H]([C@H](C)CCC(=O)NCCS(=O)(=O)O)CC[C@@H]12)[C@H]1CC[C@H]2[C@@H]3[C@@H](O)C[C@@H]4C[C@H](O)CC[C@]4(C)[C@H]3CC[C@]12C,58,1.7,Active,Active,inactive,Active,Non-Toxic,inactive,Active,Not Active,Active,Not Active,Active,Active,Active,Active,Active,
C[C@H](CCC(=O)NCCS(=O)(=O)O)[C@H]1CC[C@H]2[C@@H]3[C@@H](O)C[C@@H]4C[C@H](NC(=O)CCCC(=O)N[C@@H]5CC[C@@]6(C)[C@@H](C5)C[C@H](O)[C@@H]5[C@@H]6CC[C@]6(C)[C@@H]([C@H](C)CCC(=O)NCCS(=O)(=O)O)CC[C@@H]56)CC[C@]4(C)[C@H]3CC[C@]12C,41,2.5,Active,Active,inactive,Active,Non-Toxic,inactive,Active,Not Active,Active,Not Active,inactive,Active,inactive,Not Active,inactive,58.3
